{
  "source": "patent US5637625A",
  "about": "“Propofol microdroplet formulations” (Research Triangle Pharmaceuticals Ltd., priority 1996, dated 1997)",
  "key": {"[1]": {"system": "laboratory rats", "assay": "Efficacy for general anesthesia in rats (i.v. tail vein), with mortality", "assay_type": "in vivo, female CD laboratory rats", "settings": "20-21 mg/kg", "protocol": "Diprivan® (Diprivan® 1%, Injection propofol, 10 mg/ml, Emulsion for I.V. Administration, Stuart Pharmaceuticals) was purchased. It is described by the manufacturer as a sterile, nonpyrogenic emulsion containing 10 mg/mL propofol, 100 mg/ml soybean oil, 12 mg/mL lecithin in an aqueous vehicle. It was maintained at room temperature as described by the manufacturer. Samples were taken using aseptic technique.\nLecithin-coated propofol microdroplets containing 6.8% propofol and Diprivan® were injected into the tail veins of 150 gram female CD laboratory rats (Charles River Laboratories, Wilmington, Mass.) restrained in a Decapicone® (Braintree Scientific, Braintree, Mass.). The volumes of 6.8% (w/v) microdroplet propofol injected were 10, 20, 30 or 50 μL. The injections were accomplished in 2-3 seconds. Volumes of 1% Diprivan® injections were 100, 200, 300 or 500 μL. The injections were accomplished in 5-15 seconds. The animals were observed during the injections, and the time required for loss of consciousness (\"time to unconsciousness\") was recorded. Then the animals were removed from the Decapicone® and placed on their sides and were tested for startle response to a loud clap. […] The time to regain startle response (\"time to startle response\") was recorded. The time to recover the righting response, indicated by spontaneous attempt to stand, was also measured. […]"}, "[2]": {"settings": "cited from earlier work"}, "[3]": {"settings": "pure oily state; cited from earlier work"}},
  "data": [
    {"molecule": "CC(C)c1cccc(C(C)C)c1O", "note": "[Propofol, 2,6-diisopropylphenol]", "values": [
      {"measurement": "Mortality (in words)", "setting": "[1]", "value": "significant mortality"},
      {"measurement": "Water solubility", "setting": "[2]", "value": "water-insoluble"},
      {"measurement": "Irritancy", "setting": "[3]", "value": "irritant"}
    ]}
  ]
}
